≈ marks a conversion by molar mass, not a printed value. Counter-ions that a name gives are not always drawn. Like-named read-outs stand apart in the source and are kept apart here.
Columns and labels:
[1] = cited from earlier work
[2] = Free rasagiline base in citrate salt preparations (toluene extraction, TLC, pH); details: for Content of extractable base (toluene) % on total base content: by ratio base to acid mole:mole
[3] = from references, cited from earlier work
[4] = Aqueous salt solutions held at +5° C.; assay type: physicochemical; details: 15 hrs at +5° C.
Experimental: (§1) 3.02 g of Citric acid was dissolved in 4 ml deionized water. […] Exothermic effect was observed (temperature rose from 22 to 25° C.), and most of the solid was dissolved. Then the mixture was heated to 42° and complete dissolution of the solid was observed. The resulting clear viscous syrup-like solution was held in refrigerator at +5° C. overnight.
3.45 g of Citric acid was dissolved in 5 ml deionized water and pre-heated to 30° C. […] Exothermic effect was observed (temperature rose from 30 to 36° C.), and the solid was dissolved. The resulted clear viscous syrup-like solution was held in refrigerator at +5° C. overnight.
as §1, with “3.46” for “3.02”, “5” for “4”, “27°” for “25°”, “46° C. 0.5 ml water was added” for “42°”

[5] = Exposure of citrate salts to atmospheric air in open dishes at ambient temperature; assay type: physicochemical; details: for Changes on exposure to atmosphere (appearance): ambient temperature, open dish
Text: (§2) The changes were observed and recorded.

[6] = Storage of citrate salts in sealed glass vials in refrigerator; assay type: physicochemical; details: 7±2° C., sealed vial
Text: as §2

physchem = details: water
[7] = target: B-form of the enzyme monoamine oxidase (“MAO-B”) (Homo sapiens, UniProt P27338); details: reported in prior patents; cited from earlier work
[8] = Aqueous / water solubility; details: aqueous citric acid reaction solution

B-form of the enzyme monoamine oxidase (“MAO-B”), sequence (P27338 whole entry, species assumed): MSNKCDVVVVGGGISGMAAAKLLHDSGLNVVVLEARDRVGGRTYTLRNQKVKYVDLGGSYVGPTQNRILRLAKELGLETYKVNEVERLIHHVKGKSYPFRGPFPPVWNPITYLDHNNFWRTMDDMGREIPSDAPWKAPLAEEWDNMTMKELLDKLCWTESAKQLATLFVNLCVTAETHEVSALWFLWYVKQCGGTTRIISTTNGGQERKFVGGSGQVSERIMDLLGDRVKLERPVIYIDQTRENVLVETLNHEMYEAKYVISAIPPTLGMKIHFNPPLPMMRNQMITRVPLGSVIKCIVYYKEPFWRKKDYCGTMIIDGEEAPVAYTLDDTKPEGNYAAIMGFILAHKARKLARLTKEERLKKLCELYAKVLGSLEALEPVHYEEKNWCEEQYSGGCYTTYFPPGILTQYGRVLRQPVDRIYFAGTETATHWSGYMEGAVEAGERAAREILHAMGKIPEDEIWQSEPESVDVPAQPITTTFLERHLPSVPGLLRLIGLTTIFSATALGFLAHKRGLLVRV

Compound: Tosylate
- Water solubility ([1]; Table 8c, from references): 60000 to 70000 µg/mL

Compound: C#CCN[C@@H]1CCc2ccccc21.O=C(O)CC(O)(CC(=O)O)C(=O)O [Mono-citrate, mono-rasagiline citrate]
- Content of extractable base (toluene) % on total base content [2]: 1.75-3.6%

Compound: C#CCN[C@@H]1CCc2ccccc21 [Mesylate, Rasagiline mesylate]
- Hygroscopicity by KF ([3]; Table 8c): Not hygroscopic

Compound: Oxalate
- Hygroscopicity by KF ([3]; Table 8c): Not hygroscopic

Compound: C#CCN[C@@H]1CCc2ccccc21.C#CCN[C@@H]1CCc2ccccc21.O=C(O)CC(O)(CC(=O)O)C(=O)O [Example 4c]
- precipitation from solution [4]: No precipitation
- Changes on exposure to atmosphere (appearance) ([5]; 0:00 hrs:min): Powder
- Changes on exposure to atmosphere (appearance) ([5]; 0:50-1:00 hrs:min): Powder
- Changes on exposure to atmosphere (appearance) ([5]; 0:30 hrs:min): Powder
- Changes on exposure to atmosphere (appearance) ([5]; 1:50-2:00 hrs:min): Powder
- Changes on exposure to atmosphere (appearance) ([5]; 5:00 hrs:min): Lump powder
- Appearance stored in refrigerator ([6]; 0 month): White powder
- Appearance stored in refrigerator ([6]; 3 months): White powder
- Appearance stored in refrigerator ([6]; 6 months): White powder

Compound: Cl [Chloride]
- Hygroscopicity by KF ([3]; Table 8c): Not hygroscopic

Compound: C#CCN[C@@H]1CCc2ccccc21.O=C(O)CC(O)(CC(=O)O)C(=O)O [Example 4b]
- precipitation from solution [4]: No precipitation
- Changes on exposure to atmosphere (appearance) ([5]; 0:00 hrs:min): Powder
- Changes on exposure to atmosphere (appearance) ([5]; 1:50-2:00 hrs:min): Semi-solid
- Changes on exposure to atmosphere (appearance) ([5]; 6:00 hrs:min): Syrup
- Changes on exposure to atmosphere (appearance) ([5]; 7:00 hrs:min): Syrup
- Appearance stored in refrigerator ([6]; 0 month): White powder
- Appearance stored in refrigerator ([6]; 3 months): White powder
- Appearance stored in refrigerator ([6]; 6 months): White powder

Compound: C#CCNC1CCc2ccccc21.C#CCNC1CCc2ccccc21.O=C(O)CC(O)(CC(=O)O)C(=O)O (stereo not drawn) [Di-citrate, di-rasagiline citrate]
- Content of extractable base (toluene) % on total base content [2]: 22.0%

Compound: rasagiline citrate
- hygroscopicity (in words) ([5]; exposed to air/humidity at ambient temperature): highest hygroscopicity

Compound: C#CCN[C@@H]1CCc2ccccc21 [Rasagiline, R(+)-N-propargyl-1-aminoindan]
- Hygroscopicity by KF ([3]; Table 8b): Not hygroscopic
- solubility (physchem): ~2000 µg/mL (≈ 11.7 mM)
- inhibition of MAO-B [7]: selective inhibitor
- dissolves in aqueous reaction solution [8]: more than 10 wt %

Compound: C#CCN[C@@H]1CCc2ccccc21.C#CCN[C@@H]1CCc2ccccc21.O=S(=O)(O)CCS(=O)(=O)O [Edisilate]
- Hygroscopicity by KF ([3]; Table 8c): Not hygroscopic

Compound: O=C(O)CC(O)(CC(=O)O)C(=O)O [Citric Acid, Citric acid]
- Hygroscopicity by KF ([3]; Table 8b): low

Compound: rasagiline maleate
- Water solubility (mg/ml) ([1]; Table 8c, from references): >=1000 mg/ml
- solubility ([1]; as described in U.S. Pat. No. 6,630,514): not less than 1000 mg/ml water

Compound: C#CCN[C@@H]1CCc2ccccc21.O=C(O)CC(O)(CC(=O)O)C(=O)O [Example 5.1]
- Extracted R-PAI (%) ([2]; free base extracted with toluene, solvent and citric acid:base mole proportions per example): 0.06 g-1.75%

Compound: C#CCNC1CCc2ccccc21.C#CCNC1CCc2ccccc21.C#CCNC1CCc2ccccc21.O=C(O)CC(O)(CC(=O)O)C(=O)O (stereo not drawn) [Tri-citrate, tri-rasagiline citrate]
- Content of extractable base (toluene) % on total base content [2]: 42.7%

Compound: C#CCN[C@@H]1CCc2ccccc21.C#CCN[C@@H]1CCc2ccccc21.C#CCN[C@@H]1CCc2ccccc21.O=C(O)CC(O)(CC(=O)O)C(=O)O [Example 4d]
- precipitation from solution [4]: No precipitation
- Changes on exposure to atmosphere (appearance) ([5]; 0:00 hrs:min): Powder
- Changes on exposure to atmosphere (appearance) ([5]; 0:30 hrs:min): Powder
- Changes on exposure to atmosphere (appearance) ([5]; 5:00 hrs:min): Semi-solid
- Changes on exposure to atmosphere (appearance) ([5]; 6:00 hrs:min): Semi-solid
- Appearance stored in refrigerator ([6]; 0 month): White powder
- Appearance stored in refrigerator ([6]; 3 months): White powder
- Appearance stored in refrigerator ([6]; 6 months): White powder
